Experimental findings from ChEMBL document CHEMBL2074090, “Characterization of the transport properties of cloned rat multidrug resistance-associated protein 3 (MRP3)” (J Biol Chem, 1999) are described below.

The Km is the concentration of substrate that gives half-maximal velocity.

For data set [1], the target named is T1, MRP3 (ABCC3, ATP-binding cassette sub-family C member 3) (Rattus norvegicus, UniProt O88563). Briefly: TP_TRANSPORTER: inhibition of E217betaG uptake (E217betaG: 0.1 uM, alpha-naphthyl beta-D-glucuronide: 200 uM) in membrane vesicle from Mrp3-expressing LLC-PK1 cells. In kind it is functional, cell membranes. More on the design: scale not given: the % may be the effect or the level left. To be noted: pig, membrane vesicles from Mrp3-expressing LLC-PK1 cells, probe E217betaG; read-out: Activity.

The target in data set [2] is ATP-binding cassette sub-family C member 3 (Rattus norvegicus, UniProt O88563). The experiment in a line: (§1) TP_TRANSPORTER: uptake in membrane vesicle from Mrp3-expressing LLC-PK1 cells. In kind it is functional, cell membranes. To be noted: pig.
Data set [3] has as its target T1, MRP3 (ABCC3, ATP-binding cassette sub-family C member 3). Briefly: TP_TRANSPORTER: inhibition of E217betaG uptake (E217betaG: 0.1 uM, E3040 glucuronide: 50 uM) in membrane vesicles from MRP3-expressing HeLa cells. Type of data set: functional, cell membranes, Membrane vesicle. More on the design: scale not given: the % may be the effect or the level left. The note with it: human, probe E217betaG, read-out: Activity.

Data set [4] has the same target. Briefly: TP_TRANSPORTER: inhibition of E217betaG uptake (E217betaG: 0.1 uM, LTC4: 2.5 uM) in membrane vesicle from Mrp3-expressing LLC-PK1 cells. The note with it: pig, membrane vesicles from Mrp3-expressing LLC-PK1 cells, probe E217betaG; read-out: Activity. Type of data set: functional, cell membranes. More on the design: scale not given: the % may be the effect or the level left.

Data set [5] has the same target. Briefly: TP_TRANSPORTER: inhibition of E217betaG uptake (E217betaG: 0.1 uM, E1S: 500 uM) in membrane vesicle from Mrp3-expressing LLC-PK1 cells. In kind it is functional, cell membranes. More on the design: scale not given: the % may be the effect or the level left. The note with it: pig, membrane vesicles from Mrp3-expressing LLC-PK1 cells, probe E217betaG; read-out: Activity.

The target is the same in data set [6]. The experiment in a line: TP_TRANSPORTER: inhibition of E217betaG uptake (E217betaG: 0.1 uM, MTX: 1000 uM) in membrane vesicles from MRP3-expressing HeLa cells. In kind it is functional, cell membranes, Membrane vesicle. More on the design: scale not given: the % may be the effect or the level left. To be noted: human, probe E217betaG, read-out: Activity.
Data set [7] has the same target. Briefly: TP_TRANSPORTER: inhibition of E217betaG uptake (E217betaG: 0.1 uM, MTX: 1000 uM) in membrane vesicles from MRP3-expressing LLC-PK1 cells. Type of data set: functional, cell membranes, Membrane vesicle. More on the design: scale not given: the % may be the effect or the level left. To be noted: pig, probe E217betaG, read-out: Activity.
The target is the same in data set [8]. The experiment in a line: TP_TRANSPORTER: inhibition of E217betaG uptake (E217betaG: 0.1 uM, 4-methylumbeliferone glucuronide: 500 uM) in membrane vesicle from Mrp3-expressing LLC-PK1 cells. Type of data set: functional, cell membranes. More on the design: scale not given: the % may be the effect or the level left. To be noted: pig, membrane vesicles from Mrp3-expressing LLC-PK1 cells, probe E217betaG; read-out: Activity.

Data set [9] shares this target. The experiment in a line: TP_TRANSPORTER: inhibition of E217betaG uptake (E217betaG: 0.1 uM, DNP-SG: 500 uM) in membrane vesicles from MRP3-expressing LLC-PK1 cells. In kind it is functional, cell membranes, Membrane vesicle. More on the design: scale not given: the % may be the effect or the level left. The note with it: pig, probe E217betaG, read-out: Activity.

Substrate in data set [10]: C[C@]12CC[C@@H]3c4ccc(O)cc4CC[C@H]3[C@@H]1CC[C@@H]2O[C@@H]1O[C@H](C(=O)O)[C@@H](O)[C@H](O)[C@H]1O
Described as §1. Type of data set: functional, cell membranes.

As for `O=C(O)[C@H]1O[C@@H](Oc2cccc3ccccc23)[C@H](O)[C@@H](O)[C@@H]1O`, in data set [1], the activity at 200 µM was found to be 23.6%. Take `CNc1nc2c(Cc3cccnc3)c(C)c(O[C@@H]3O[C@H](C(=O)O)[C@@H](O)[C@H](O)[C@H]3O)c(C)c2s1` [E3040 GLUCURONIDE]: the Activity result in [2] was “substrate [+]”. Also, in data set [3], the activity at 50 µM was 11.1%. As for `CCCCC/C=C\C\C=C/C=C/C=C/[C@@H](SC[C@@H](NC(=O)CC[C@H](N)C(=O)O)C(=O)NCC(=O)O)[C@@H](O)CCCC(=O)O` [LEUKOTRIEN C4], the activity at 2.5 µM in data set [4] was determined as 57%.

With `C[C@]12CC[C@@H]3c4ccc(OS(=O)(=O)O)cc4CC[C@H]3[C@@H]1CCC2=O` [ESTRONE SULFURIC ACID], in data set [5], the activity at 500 µM was found to be 33.3%. Take `CN(Cc1cnc2nc(N)nc(N)c2n1)c1ccc(C(=O)N[C@@H](CCC(=O)O)C(=O)O)cc1` [METHOTREXATE]: the Activity result in [2] is “substrate [+]”. The activity at 1000 µM in data set [6] was 18.5%; in data set [7], 10.7%. Regarding `O=C(O)[C@H]1O[C@@H](OCc2cc(=O)oc3cc(O)ccc23)[C@H](O)[C@@H](O)[C@@H]1O`, the activity at 500 µM in data set [8] turned out to be 14.1%. On to `N[C@@H](CCC(=O)N[C@H](CSc1ccc([N+](=O)[O-])cc1[N+](=O)[O-])C(=O)NCC(=O)O)C(=O)O`, for which the activity at 500 µM in [9] came out at 14.4%.

B1: ATP-binding cassette sub-family C member 3 (Rattus norvegicus) (protein)
chain: MDRLCGSGELGSKFWDSNLTVYTNTPDLTPCFQNSLLAWVPCIYLWAALPCYLFYLRHHRLGYIVLSCLSRLKTALGVLLWCISWVDLFYSFHGLVHGSSPAPVFFITPLLVGITMLLATLLIQYERLRGVRSSGVLIIFWLLCVICAIIPFRSKILLALAEGKILDPFRFTTFYIYFALVLCAFILSCFQEKPPLFSPENLDTNPCPEASAGFFSRLSFWWFTKLAILGYRRPLEDSDLWSLSEEDCSHKVVQRLLEAWQKQQTQASGPQTAALEPKIAGEDEVLLKARPKTKKPSFLRALVRTFTSSLLMGACFKLIQDLSPSSTHSCSASSSGLFRPHGPYWWGFLLAGLMFVSSTMQTLILHQHYHCIFVMALRIRTAIIGVIYRKALTITNSVKREYTVGEMVNLMSVDAQRFMDVSPFINLLWSAPLQVILAIYFLWQILGPSALAGVAVIVLLIPLNGAVSMKMKTYQVQQMKFKDSRIKLMSEILNGIKVLKLYAWEPTFLEQVEGIRQGELQLLRKGAYLQAISTFIWVCTPFMVTLITLGVYVCVDKNNVLDAEKAFVSLSLFNILKIPLNLLPQLISGMTQTSVSLKRIQDFLNQDELDPQCVERKTISPGRAITIHNGTFSWSKDLPPTLHSINIQIPKGALVAVVGPVGCGKSSLVSALLGEMEKLEGAVSVKGSVAYVPQQAWIQNCTLQENVLFGQPMNPKRYQQALETCALLADLDVLPGGDQTEIGEKGINLSGGQRQRVSLARAVYSDANIFLLDDPLSAVDSHVAKHIFDQVIGPEGVLAGKTRVLVTHGISFLPQTDFIIVLADGQITEMGHYSELLQHDGSFANFLRNYAPDENQEANEGVLQHANEEVLLLEDTLSTHTDLTDTEPAIYEVRKQFMREMSSLSSEGEGQNRPVLKRYTSSLEKEVPATQTKETGALIKEEIAETGNVKLSVYWDYAKSVGLCTTLFICLLYAGQNAVAIGANVWLSAWTNDVEEHGQQNNTSVRLGVYATLGILQGLLVMLSAFTMVVGAIQAARLLHTALLHNQIRAPQSFFDTTPSGRILNRFSKDIYVIHEVLAPTILMLFNSFYTSISTIVVIVASTPLFCVVVLPLAVFYGFVQRFYVATSRQLKRLESVSRSPIFSHFSETVTGTSVIRAYGRVQDFKVLSDAKVDSNQKTTYPYIASNRWLGVHVEFVGNCVVLFSALFAVIGRNSLNPGLVGLSVSYALQVTLSLNWMIRTLSDLESNIIAVERVKEYSKTETEAPWVLESNRAPEGWPRSGVVEFRNYSVRYRPGLELVLKNLTLHVQGGEKVGIVGRTGAGKSSMTLCLFRILEAAEGEIFIDGLNVAHIGLHDLRSQLTIIPQDPILFSGTLRMNLDPFGRYSDEDIWRTLELSHLSAFVSSQPTGLDFQCSEGGDNLSVGQRQLVCLARALLRKSRVLVLDEATAAIDLETDDLIQGTIRTQFEDCTVLTIAHRLNTIMDYNRVLVLDKGVVAEFDSPVNLIAAGGIFYGMAKDAGLA
Take B1: the Km in data set [10] amounted to 110 µM.
